In US4937230A, “Method of healing wounds in horses” (ProCyte Corporation, priority 1987, dated 1990):

Assays:
barbed-wire cuts/gashes = test: Barbed-wire cuts/gashes, topical treatment of horses E, F and G; assay type: in vivo, horse
Text: (1) History: The skin of the hoof area of horse E was badly torn from barbed-wire.
Treatment: A cream base containing 0.4% GHL:CU and 6% DMSO was applied to the area 2 times/day.
(2) History: A 33-year-old horse (horse F) received a serious barbed wire wound to the lower leg directly into the cleft of the hoof. The wound area was ripped open, thereby dividing the hoof.
Treatment: A cream base with 0.4% GHL-CU and 6% DMSO was applied 1-2 times/day.
(3) History: A very deep barbed-wire induced gash on the upper rear leg of horse G was originally treated with antibiotics and closed with stitches.
Treatment: A cream containing 0.4% GHL-CU and 6% DMSO was applied for 2 weeks (1-2 times/day).

rope burn = test: Rope burn, topical treatment of horse H; assay type: in vivo; details: rear ankle, cream base 0.4% GHL-CU and 6% DMSO, 2 times/day
Text: The rope burn had removed all hair and skin. A veterinarian treated the burn with antibiotics and a nitrofurosone ointment. The scab was removed daily with washing. The injury responded, although quite slowly.
Treatment: A cream base with 0.4% GHL-CU and 6% DMSO was applied to the burn 2 times/day. The scab was left on the area during the treatment period.

[1] = test system: denuded area after injury (poor regrowth of hair); test: Denuded area after injury, topical treatment of horses B and C; assay type: in vivo, horse; details: cream base 0.4% GHL-CU and 6% DMSO
Method: (1) History: Approximately 2 months following wounding (lower leg, cause unspecified) healing occurred in horse B with poor regrowth of hair. The affected area measured approximately 2 square inches
Treatment: A cream base containing 0.4% GHL-CU and 6% DMSO was applied to the denuded area 3-4 times/week. Substantial hair growth was noted after treatment for approximately 2-3 weeks.
(2) History: An ulcerative sore on the back of Horse C below the saddle horn area (withers) was treated by a veterinarian using antibiotics and an antibacterial spray. […] Hair was absent from the partially healed sore.
Treatment: A cream base consisting of 0.4% GHL-CU and 6% DMSO was applied 1-2 times/day. Within 3 weeks, the infected ulcerative area resolved and hair was noted to be covering the wound.

[2] = test system: ulcerating pressure-induced injury; test: Ulcerating pressure-induced injury, topical treatment of horse J; assay type: in vivo
Text: History: A 12-year-old thoroughbred (horse J) developed a large ulcer (2 inch diameter) on top of the withers (back beneath saddle horn area) A veterinarian treated the wound with antibiotics and an antibacterial spray. […] The wound continued to be large and inflamed after 3-4 months
Treatment: A cream containing 0.4% GHL:Cu with 6% DMSO was applied 1-2 times/day. The old scab fell off after a few days and was replaced by a new scab. After 2 weeks, the infection cleared up and ulceration began to be replaced by a skin covering. […] Approximately 1 month after beginning treatment, the ulcerative injury had resolved totally.

puncture wound = test: Puncture wound, topical treatment of horse D; assay type: in vivo; details: upper leg, cream base 0.4% GHL-CU and 3% DMSO, twice/day
Method: History: A puncture wound of unknown origin occurred to the upper leg of horse D. No traditional therapy (antibiotics) was used prior to treatment.
Treatment: A cream base containing 0.4% GHL-CU and 3% DMSO was applied to the wound site shortly after the wound was discovered. […] The treatment was performed twice/day.

[3] = test system: infected fly bites (raised nodules in the saddle region); test: Saddle sores from fly bites, topical treatment of horse A; assay type: in vivo; details: cream base 0.4% GHL-CU and 6% DMSO, topical twice/daily
Text: History: Horse A suffered from fly bites which became infected and developed into irritating raised nodules located on the back in the saddle region over a period of 8 weeks.
Treatment: A cream base containing 0.4% GHL-CU and 6% DMSO was applied twice/daily to the nodules. Within 4-5 days, softening of the nodules occurred along with diminishment of irritation and inflammation. Total healing occurred within 10-14 days.

[4] = test system: granulation tissue ("proud flesh"); test: Excessive accumulation of granulation tissue (proud flesh), topical treatment of horse K; assay type: in vivo; details: cream base 0.4% GHL:CU and 3% DMSO for one month
Text: History: An accumulation of unsightly granulation tissue or granuloma (known as "proud flesh") was present over a poorly healed wound (sight unspecified) in horse K. Typically, proud flesh often accompanies an insufficiently healing wound, appearing bubbly, swollen and nodular.

[5] = test system: full-thickness skin loss wound; test: Full-thickness skin loss, topical treatment of horse I; assay type: in vivo
Text: History: Horse I suffered from a traumatic injury to the anterior mid-calf aspect of the rear leg, caused by striking a fence while jumping. A flap of skin initially remained over the approximately 2.5 inch diameter wound. The leg was bandaged for a brief time, and the dead skin flap removed within 10 days post-injury. The leg appeared swollen and inflamed.
Inflammation and swelling had also diminished.

[6] = horse F, cream base 0.4% GHL-CU and 6% DMSO, 1-2 times/day

NC(=O)N/N=C/c1ccc([N+](=O)[O-])o1 [nitrofurosone, reference compound]
effect of prior treatment on the dehisced wound (barbed-wire cuts/gashes; horse G, 0.2% antibacterial agent): ineffective

Glycyl-L-Histidy-L-Lysine: Copper(II) [GHL:Cu]
time until the wound scabbed over (barbed-wire cuts/gashes; horse E, hoof area, cream base 0.4% GHL:CU and 6% DMSO, 2 times/day): 5 days
examination of the wound 3 weeks after treatment (barbed-wire cuts/gashes; horse E, hoof area, treatment halted after 5 days): no evidence of infection
new scab formation with reduction in wound size (barbed-wire cuts/gashes; horse F, lower leg/hoof cleft, cream base 0.4% GHL-CU and 6% DMSO, 1-2 times/day): within a few days
time to almost total healing (barbed-wire cuts/gashes; [6]): ≤ 4 weeks
wound course over 2 weeks of treatment (barbed-wire cuts/gashes; [6]): continuation of wound reduction and scab covering
scab formation over open, raw tissue (barbed-wire cuts/gashes; horse G, dehisced gash upper rear leg, 6 inches x 1 inch, cream 0.4% GHL-CU and 6% DMSO, 1-2 times/day for 2 weeks): A scab formed quickly
wound closure (barbed-wire cuts/gashes; horse G, cream 0.4% GHL-CU and 6% DMSO, 1-2 times/day for 2 weeks): Within weeks, the wound had begun to close and appeared healthy
granulation of the gash (barbed-wire cuts/gashes; horse G, noted when scab was removed during cleaning): granulated considerably
hair regrowth (rope burn): hair grew back over the area
healing of the wound (rope burn; scab left on): healed up within a week
treatment time after which substantial hair growth was noted ([1]; horse B, lower leg, about 2 square inches, 3-4 times/week): 2-3 weeks
time to resolution of infected ulcerative area with hair covering the wound ([1]; horse C, ulcerative sore on the back, 1-2 times/day): ≤ 3 weeks
time until infection cleared up and ulceration began to be replaced by skin covering ([2]; 2 inch diameter ulcer on withers, cream 0.4% GHL:Cu with 6% DMSO, 1-2 times/day): 2 weeks
time until ulcerative injury had resolved totally ([2]; cream 0.4% GHL:Cu with 6% DMSO, 1-2 times/day): Approximately 1 month
hair growth over the area ([2]; shortly after 2 weeks): hair began growing over the area
healing of the wound (puncture wound): healed within a few days
infection of the wound (puncture wound): did not become infected
time to softening of the nodules with diminishment of irritation and inflammation [3]: 4 to 5 days
time to total healing [3]: 10 to 14 days
swelling and appearance of proud flesh [4]: notable reduction in swelling and improved appearance

Glycyl-L-Histidyl-L-Lysine octyl ester:Copper (II) [GHL-octyl ester Cu]
wound size under continued treatment ([5]; 1 time/day over the following week): continued to decrease in size
reduction of wound size ([5]; about 2.5 inch diameter wound, cream base 0.4% GHL-octyl ester Cu and 6% DMSO, 2 times/day for 2 weeks): ~50%
inflammation and swelling ([5]; after 2 weeks, 2 times/day): diminished
scab formation ([5]; after 2 weeks, 2 times/day): a scab had formed over the area
